Reference: US12624127B2, “Chitosan derivatives as antimicrobials and synergistic combinations thereof” (priority 2022, dated 2026)

Columns and labels:
[1] = design: species or system mice; settings: mouse, in vivo, ip, 25 mg/kg
Method: The biomarkers were determined before treatment (Day 0), and Day 1 and Day 7 after administration. The biomarkers of Day 0 were the untreated controls. The animal experiments were carried out in accordance to the Code of Practice for the Institutional Care and Use of Animals for Scientific Purposes and were approved by the Ethics Committee of Ningbo University.

[2] = test system: 3T3 cells
Method: In a 96-well plate, 3T3 cells were co-cultured for 24 h at 37° C. with polymer (100 μg/mL or 200 μg/mL) at initial cell density of 1×10^5 cells per well. At the end of the incubation period, the culture medium was removed, each well was washed with PBS followed by the addition of MTT solution, and the plate was incubated for 4 h at 37° C. The MTT medium was then removed, 100 μL of DMSO was added to each well, the plate was shaken at 100 rpm for 15 min and the absorbance at 570 nm was measured with plate reader (BIO-RAD Benchmark Plus, US).

[3] = test system: A. baumannii; assay: MIC determination, broth micro dilution; format: cell-based, Acinetobacter baumannii; settings: Acinetobacter baumannii; A. baumannii AB-1, antibiotic alone; read-out: MIC of antibiotic without 2,6-DAC
Method: (§1) MIC values were determined using a broth micro dilution method. Bacteria cells were grown overnight at 37° C. in MHB to a mid-log phase (OD600 between 0.4-0.5 for each organism) and diluted in MHB to 10^5 CFU/mL. […] 50 μL of the 1-5×10^5 CFU/mL bacterial cultures (final concentration) was aliquoted into 96-well microtiter plates and mixed with 50 μL of two-fold dilutions of the polymer or antibiotics and incubated for 16-18 h at 37° C. with shaking at 200 rpm.
(§2) 2,6-DAC was screened as a potentiating agent for synergistic combinations with antibiotics against both A. baumannii AB-1 and MRSA USA300. Before the synergy tests, the MIC values of antibiotics were tested against MDR A. baumannii AB-1 and MRSA USA300 by following the MIC determination protocol in Example 4. Then, the synergy of 2,6-DAC with antibiotics was determined.

[4] = test system: MDR A. baumannii (AB-1); assay: Intraperitoneal infection model in BALB/c mice; format: in vivo, Acinetobacter baumannii
Method: Bacterial cultures of MDR A. baumannii (AB-1) were prepared and used to infect 8-week-old female BALB/c mice. 10^6 CFU/mL of AB-1 (300 μL) was injected into the intraperitoneal cavity to introduce the infection. After 2 h of infection, specific dosage of antibiotic (novobiocin or rifampicin, 10 mg/kg), 2,6-DAC (25 mg/kg) or the combination of antibiotic (novobiocin or rifampicin, 10 mg/kg) and 2,6-DAC (25 mg/kg) were injected into the intraperitoneal cavity. PBS was used as a control. Mice euthanasian at the indicated time points (18 h) was achieved by CO2 asphyxiation followed by cervical dislocation. The intraperitoneal fluid, kidney, spleen and liver were recovered, and counted for bacteria concentration. For histopathological analysis, the kidney, spleen and liver were fixed in 10% neutral buffered formalin and embedded in paraffin. The paraffin-embedded sections were stained with H&E. The animal studies were carried out in accordance to protocol (A20029) approved by the NTU Institutional Animal Care and Use Committee (NTU-IACUC).

[5] = test system: A. baumannii AB-1; assay: Time killing assay; format: cell-based, Acinetobacter baumannii
Method: The plates were sealed and incubated at 37° C. with shaking at 200 rpm.
At 0, 0.5, 1, 2, 3, 5, and 24 h post-inoculation, each well was thoroughly mixed with a multi-channel pipette and 20 μL of sample was removed, serially diluted in sterile PBS, plated on LB agar plates, and incubated at 37° C. for 12 h. Colonies were counted to determine the CFU/mL at each time point.
(§3) Synergy was measured by time killing assay and checkerboard assay. Time killing assay was performed by following the protocol in Example 4. Checkerboard susceptibility assays to measure combinations of antimicrobials were performed in MHB at 37° C. as previously described (K. R. V. Thappeta et al., ACS Infect. Dis. 2020, 6, 1228-1237; and Z. Si et al., Angew. Chem. Int. Ed. 2020, 59, 6819-6826). The fractional inhibitory concentration (FIC) indices were calculated according to the following formula: […]

[6] = test system: MRSA; assay: MIC determination, broth micro dilution; format: cell-based; settings: Staphylococcus aureus; MRSA USA300; read-out: MIC of antibiotic alone / without 2,6-DAC
Method: as §1, §2

[7] = test system: MRSA USA300; assay: Checkerboard synergy assay of 2,6-DAC with antibiotics; format: cell-based; settings: antibiotic concentration in combination with 2,6-DAC
Method: as §2, §3

[8] = test system: A. baumannii AB-1; assay: as above; format: cell-based, Acinetobacter baumannii; settings: A. baumannii AB-1
Method: as §2, §3

[9] = test system: MDR A. baumannii (AB-1); assay: Neutropenic lung infection model in BALB/c mice; format: in vivo, Acinetobacter baumannii; settings: rifampicin 10 mg/kg alone, 24 h
Method: Bacterial cultures of MDR . baumannii (AB-1) were prepared and used to infect 8-week-old female BALB/c mice. 10^8 CFU/mL of AB-1 (30 μL) was inhaled by the mouse to introduce the infection via the intranasal route. After 2 h of infection, a specific dosage of antibiotic (novobiocin or rifampicin, 10 mg/kg), 2,6-DAC (25 mg/kg) or the combination of antibiotic (novobiocin or rifampicin, 10 mg/kg) and 2,6-DAC (25 mg/kg) were administrated through the intranasal route for 2,6-DAC and through the intraperitoneal route for antibiotic. Mice euthanasian at indicated time points (24 h) was achieved by CO2 asphyxiation followed by cervical dislocation. For histopathological analysis, the lung was fixed in 10% neutral buffered formalin and embedded in paraffin. The paraffin-embedded sections were stained with H&E. The lung was recovered and counted for bacteria concentration.

[10] = test system: rabbit erythrocyte suspension; assay: Hemolytic activity test; format: cell-based; settings: 78 μg/mL, 1 h
Method: Fresh rabbit blood (5 mL) was washed three times with sterilized PBS and diluted to a final concentration of 5% v/v. A series concentration of 2,6-DAC and Gramicidin control were incubated with the prepared erythrocyte suspension for 1 h with shaking in a 96-well plate. The supernatant (80 μL) was aliquoted to a new plate after centrifugation at 1000 g for 10 min. The absorbance at 540 nm was recorded by the TECAN microplate reader. 0.1% Triton X-100 that can lyse red blood cells completely was used as the positive control (Op), and PBS was used as the negative control (On). The percentage of hemolysis was determined by the following equation: Hemolysis%=[(Ox−On)/(Op−On)]×100% Results and Discussion

2,6-Diamino Chitosan [Compound 5a]
Change in biomarkers of kidney and liver functions (in words) [1]: did not cause a significant change | Biocompatibility (in words) [2]: good biocompatibility

CO[C@@H]1[C@@H](OC(N)=O)[C@@H](O)[C@H](Oc2ccc3c(O)c(NC(=O)c4ccc(O)c(CC=C(C)C)c4)c(=O)oc3c2C)OC1(C)C [Novobiocin]
MIC [3]: 8 µg/mL | Histology of liver, spleen and kidney, combination treatment (in words) ([4]; 2,6-DAC + novobiocin, H&E): significantly alleviated these tissue abnormalities | Histology of liver, spleen and kidney, individual treatment (in words) ([4]; alone, H&E, vs infection control): did not improve the tissue appearance | Efficacy of single agent in intraperitoneal fluid and distal organs (in words) ([4]; alone: 2,6-DAC 25 mg/kg or novobiocin 10 mg/kg, i.p., 18 h): ineffective | Bacteria killing, combination with 2,6-DAC ([5]; 2,6-DAC 0.25×MIC + novobiocin 0.125 to 0.25×MIC): 4 log10 | Killing of bacteria by single agent (in words) ([5]; sub-inhibitory concentration, alone, 24 h): no killing of bacteria | MIC [6]: 0.125 µg/mL | MIC, antibiotic in combination [7]: 0.03125 µg/mL | Synergy with 2,6-DAC (in words) [8]: synergistic activity | MIC, antibiotic in combination ([8]; antibiotic concentration in combination with 2,6-DAC (8 μg/mL)): 0.5 µg/mL

CO[C@H]1/C=C/O[C@@]2(C)Oc3c(C)c(O)c4c(O)c(c(/C=N/N5CCN(C)CC5)c(O)c4c3C2=O)NC(=O)/C(C)=C\C=C\[C@H](C)[C@H](O)[C@@H](C)[C@@H](O)[C@@H](C)[C@H](OC(C)=O)[C@@H]1C [Rifampicin]
Reduction of lung bacteria, single agent [9]: around 1.6 log10

Gramicidin
Hemolysis [10]: 100%
